Reference: ChEMBL document CHEMBL1135290, “Synthesis of sub-micromolar inhibitors of MraY by exploring the region originally occupied by the diazepanone ring in the liposidomycin structure” (Bioorg Med Chem Lett, 2002)

Columns and labels:
[1] = Inhibitory activity against Translocase I
[2] = test system: Streptococcus pyogenes; experiment: Tested in vitro for antibacterial activity against Streptococcus pyogenes using micro-broth dilution method; format: functional
[3] = test system: Enterococcus faecium; experiment: Tested in vitro for antibacterial activity against Enterococcus faecium using micro-broth dilution method; format: functional
[4] = test system: Staphylococcus aureus; experiment: Tested in vitro for antibacterial activity against Staphylococcus aureus using micro-broth dilution method; format: functional
[5] = test system: Escherichia coli; experiment: Tested in vitro for antibacterial activity against Escherichia coli using micro-broth dilution method; format: functional

SMILES	IC50 [1]	further results
NC[C@H]1O[C@@H](O[C@@H](CNCc2ccc(OC(F)(F)F)cc2)[C@@H]2C[C@@H](O)[C@H](n3ccc(=O)[nH]c3=O)O2)[C@H](O)[C@@H]1O	0.3 µM	–
CCCCCCCCCCCCCCNC[C@H](O[C@@H]1O[C@H](CN)[C@@H](O)[C@H]1O)[C@@H]1C[C@@H](O)[C@H](n2ccc(=O)[nH]c2=O)O1.O=C(O)C(F)(F)F	0.59 µM	MIC [2]: 2.5 µg/mL; MIC [3]: 10 µg/mL; MIC [4]: 2.5 µg/mL; MIC [5]: 2.5 µg/mL
CC(C)c1ccc(C(=O)NC[C@H](O[C@@H]2O[C@H](CN)[C@@H](O)[C@H]2O)[C@@H]2C[C@@H](O)[C@H](n3ccc(=O)[nH]c3=O)O2)cc1	0.4 µM	–
CCCCCCCCCCCCN(C)C[C@H](O[C@@H]1O[C@H](CN)[C@@H](O)[C@H]1O)[C@@H]1C[C@@H](O)[C@H](n2ccc(=O)[nH]c2=O)O1	0.23 µM	–
NC[C@H]1O[C@@H](O[C@@H](CNC(=O)c2ccc(Br)cc2)[C@@H]2C[C@@H](O)[C@H](n3ccc(=O)[nH]c3=O)O2)[C@H](O)[C@@H]1O	0.44 µM	–
NC[C@H]1O[C@@H](O[C@@H](CNCCc2ccc(Oc3ccccc3)cc2)[C@@H]2C[C@@H](O)[C@H](n3ccc(=O)[nH]c3=O)O2)[C@H](O)[C@@H]1O	0.31 µM	–
NC[C@H]1O[C@@H](O[C@@H](CNCc2ccc(SC(F)(F)F)cc2)[C@@H]2C[C@@H](O)[C@H](n3ccc(=O)[nH]c3=O)O2)[C@H](O)[C@@H]1O	0.31 µM	–
CSCC[C@H](NC(=O)N[C@@H](Cc1cccc(O)c1)C(=O)O)C(=O)NC(C(=O)N/C=C1\C[C@@H](O)[C@H](n2ccc(=O)[nH]c2=O)O1)[C@H](C)N(C)C(=O)[C@@H](N)Cc1cccc(O)c1 (some centres not stated)	0.065 µM	–
NC[C@H]1O[C@@H](O[C@@H](CNC(=O)c2cccc(Oc3ccccc3)c2)[C@@H]2C[C@@H](O)[C@H](n3ccc(=O)[nH]c3=O)O2)[C@H](O)[C@@H]1O	0.44 µM	–
NC[C@H]1O[C@@H](O[C@@H](CNC(=O)c2cccc(OC(F)(F)F)c2)[C@@H]2C[C@@H](O)[C@H](n3ccc(=O)[nH]c3=O)O2)[C@H](O)[C@@H]1O	1 µM	–
NC[C@H]1O[C@@H](O[C@@H](CNC(=O)Nc2ccc(Oc3ccccc3)cc2)[C@@H]2C[C@@H](O)[C@H](n3ccc(=O)[nH]c3=O)O2)[C@H](O)[C@@H]1O	0.14 µM	–
NC[C@H]1O[C@@H](O[C@@H](CNC(=O)c2ccc(-c3ccccc3)cc2)[C@@H]2C[C@@H](O)[C@H](n3ccc(=O)[nH]c3=O)O2)[C@H](O)[C@@H]1O	0.25 µM	–
NC[C@H]1O[C@@H](OC[C@H]2O[C@@H](n3ccc(=O)[nH]c3=O)[C@H](O)[C@@H]2O)[C@H](O)[C@@H]1O	50 µM	–
COc1ccc(CN(C)C[C@H](O[C@@H]2O[C@H](CN)[C@@H](O)[C@H]2O)[C@@H]2C[C@@H](O)[C@H](n3ccc(=O)[nH]c3=O)O2)cc1	1.4 µM	–
NC[C@H]1O[C@@H](O[C@@H](CO)[C@H]2O[C@@H](n3ccc(=O)[nH]c3=O)[C@H](O)[C@@H]2O)[C@H](O)[C@@H]1O	5 µM	–
NC[C@H]1O[C@@H](O[C@@H](CNC(=O)c2ccc(Oc3ccccc3)cc2)[C@@H]2C[C@@H](O)[C@H](n3ccc(=O)[nH]c3=O)O2)[C@H](O)[C@@H]1O	0.2 µM	–
NC[C@H]1O[C@@H](O[C@@H](CNC(=O)Nc2ccc(C3CCCCC3)cc2)[C@@H]2C[C@@H](O)[C@H](n3ccc(=O)[nH]c3=O)O2)[C@H](O)[C@@H]1O	0.16 µM	–
CN(Cc1ccc(-c2ccccc2)cc1)C[C@H](O[C@@H]1O[C@H](CN)[C@@H](O)[C@H]1O)[C@@H]1C[C@@H](O)[C@H](n2ccc(=O)[nH]c2=O)O1	0.17 µM	–
NC[C@H]1O[C@@H](O[C@@H](CNC(=O)Cc2ccc(-c3ccccc3)cc2)[C@@H]2C[C@@H](O)[C@H](n3ccc(=O)[nH]c3=O)O2)[C@H](O)[C@@H]1O	0.43 µM	–
NC[C@H]1O[C@@H](O[C@@H](CNC(=O)c2ccc(C3CCCCC3)cc2)[C@@H]2C[C@@H](O)[C@H](n3ccc(=O)[nH]c3=O)O2)[C@H](O)[C@@H]1O	0.39 µM	–
NC[C@H]1O[C@@H](O[C@@H](CNC(=O)c2ccc(OCc3ccccc3)cc2)[C@@H]2C[C@@H](O)[C@H](n3ccc(=O)[nH]c3=O)O2)[C@H](O)[C@@H]1O	0.32 µM	–
NC[C@H]1O[C@@H](O[C@@H](CNc2ccc(Oc3ccccc3)cc2)[C@@H]2C[C@@H](O)[C@H](n3ccc(=O)[nH]c3=O)O2)[C@H](O)[C@@H]1O	0.2 µM	–
CN(Cc1ccccc1)C[C@H](O[C@@H]1O[C@H](CN)[C@@H](O)[C@H]1O)[C@@H]1C[C@@H](O)[C@H](n2ccc(=O)[nH]c2=O)O1	6.9 µM	–
CCCCCN(CCCCC)C[C@H](O[C@@H]1O[C@H](CN)[C@@H](O)[C@H]1O)[C@@H]1C[C@@H](O)[C@H](n2ccc(=O)[nH]c2=O)O1	9.7 µM	–
CC(=O)N[C@H]1[C@@H](O[C@@H]2O[C@H](CC(O)[C@H]3O[C@@H](n4ccc(=O)[nH]c4=O)[C@H](O)[C@@H]3O)[C@H](O)[C@H](O)[C@H]2NC(=O)/C=C/CC(C)C)O[C@H](CO)[C@@H](N)[C@@H]1O (some centres not stated) [TUNICAMYCIN]	0.48 µM	–
NC[C@H]1O[C@@H](O[C@@H](CNc2ccc(C3CCCCC3)cc2)[C@@H]2C[C@@H](O)[C@H](n3ccc(=O)[nH]c3=O)O2)[C@H](O)[C@@H]1O	0.18 µM	–

Continued, in another order:

IC50 [1]	SMILES	further results
7 µM	NC[C@H]1O[C@@H](O[C@@H](CNCCCN2CCCC2=O)[C@@H]2C[C@@H](O)[C@H](n3ccc(=O)[nH]c3=O)O2)[C@H](O)[C@@H]1O	–
2.8 µM	NC[C@H]1O[C@@H](O[C@@H](CNCC2COc3ccccc3O2)[C@@H]2C[C@@H](O)[C@H](n3ccc(=O)[nH]c3=O)O2)[C@H](O)[C@@H]1O (some centres not stated)	–
2.3 µM	NC[C@H]1O[C@@H](O[C@@H](CNCc2cccs2)[C@@H]2C[C@@H](O)[C@H](n3ccc(=O)[nH]c3=O)O2)[C@H](O)[C@@H]1O	–
6.5 µM	NC[C@H]1O[C@@H](O[C@@H](CNCc2ccc(C(=O)O)cc2)[C@@H]2C[C@@H](O)[C@H](n3ccc(=O)[nH]c3=O)O2)[C@H](O)[C@@H]1O	–
0.17 µM	NC[C@H]1O[C@@H](O[C@@H](CNCCc2ccc(Cl)cc2)[C@@H]2C[C@@H](O)[C@H](n3ccc(=O)[nH]c3=O)O2)[C@H](O)[C@@H]1O	–
0.58 µM	CC(C)(C)c1ccc(CNC[C@H](O[C@@H]2O[C@H](CN)[C@@H](O)[C@H]2O)[C@@H]2C[C@@H](O)[C@H](n3ccc(=O)[nH]c3=O)O2)cc1	–
1.8 µM	CCN(CC)CCN1CCN(C[C@H](O[C@@H]2O[C@H](CN)[C@@H](O)[C@H]2O)[C@@H]2C[C@@H](O)[C@H](n3ccc(=O)[nH]c3=O)O2)CC1	–
3.4 µM	NC[C@H]1O[C@@H](O[C@@H](CNCc2ccncc2)[C@@H]2C[C@@H](O)[C@H](n3ccc(=O)[nH]c3=O)O2)[C@H](O)[C@@H]1O	–
4.4 µM	COC(=O)C1CCN(C[C@H](O[C@@H]2O[C@H](CN)[C@@H](O)[C@H]2O)[C@@H]2C[C@@H](O)[C@H](n3ccc(=O)[nH]c3=O)O2)CC1	–
2.9 µM	NC[C@H]1O[C@@H](O[C@@H](CNCCc2c[nH]c3ccccc23)[C@@H]2C[C@@H](O)[C@H](n3ccc(=O)[nH]c3=O)O2)[C@H](O)[C@@H]1O	–
4.8 µM	NC[C@H]1O[C@@H](O[C@@H](CNCc2cccnc2)[C@@H]2C[C@@H](O)[C@H](n3ccc(=O)[nH]c3=O)O2)[C@H](O)[C@@H]1O	–
3.8 µM	NC[C@H]1O[C@@H](O[C@@H](CNCCCN2CCOCC2)[C@@H]2C[C@@H](O)[C@H](n3ccc(=O)[nH]c3=O)O2)[C@H](O)[C@@H]1O	–
5.9 µM	NC[C@H]1O[C@@H](O[C@@H](CN2CCCCC2)[C@@H]2C[C@@H](O)[C@H](n3ccc(=O)[nH]c3=O)O2)[C@H](O)[C@@H]1O	–
1.9 µM	NC[C@H]1O[C@@H](O[C@@H](CN2CCN(CC(=O)N3CCCC3)CC2)[C@@H]2C[C@@H](O)[C@H](n3ccc(=O)[nH]c3=O)O2)[C@H](O)[C@@H]1O	–
4.6 µM	NC[C@H]1O[C@@H](O[C@@H](CNCCc2ccncc2)[C@@H]2C[C@@H](O)[C@H](n3ccc(=O)[nH]c3=O)O2)[C@H](O)[C@@H]1O	–
9.2 µM	NC[C@H]1O[C@@H](O[C@@H](CNCC2CCCO2)[C@@H]2C[C@@H](O)[C@H](n3ccc(=O)[nH]c3=O)O2)[C@H](O)[C@@H]1O (some centres not stated)	–
0.74 µM	CCCCCCCNC[C@H](O[C@@H]1O[C@H](CN)[C@@H](O)[C@H]1O)[C@@H]1C[C@@H](O)[C@H](n2ccc(=O)[nH]c2=O)O1	–
1.6 µM	NC[C@H]1O[C@@H](O[C@@H](CNCCc2ccccc2)[C@@H]2C[C@@H](O)[C@H](n3ccc(=O)[nH]c3=O)O2)[C@H](O)[C@@H]1O	–
1.2 µM	COC(=O)c1ccc(CNC[C@H](O[C@@H]2O[C@H](CN)[C@@H](O)[C@H]2O)[C@@H]2C[C@@H](O)[C@H](n3ccc(=O)[nH]c3=O)O2)cc1	–
3.9 µM	CN1CCCC1CCNC[C@H](O[C@@H]1O[C@H](CN)[C@@H](O)[C@H]1O)[C@@H]1C[C@@H](O)[C@H](n2ccc(=O)[nH]c2=O)O1 (some centres not stated)	–
14 µM	NC[C@H]1O[C@@H](O[C@@H](CNC(=O)c2ccccc2)[C@@H]2C[C@@H](O)[C@H](n3ccc(=O)[nH]c3=O)O2)[C@H](O)[C@@H]1O	–
0.61 µM	Cc1ccc(CCNC[C@H](O[C@@H]2O[C@H](CN)[C@@H](O)[C@H]2O)[C@@H]2C[C@@H](O)[C@H](n3ccc(=O)[nH]c3=O)O2)cc1	–
1.3 µM	CN1CCCC1CNC[C@H](O[C@@H]1O[C@H](CN)[C@@H](O)[C@H]1O)[C@@H]1C[C@@H](O)[C@H](n2ccc(=O)[nH]c2=O)O1 (some centres not stated)	–
4 µM	COc1ccc(CNC[C@H](O[C@@H]2O[C@H](CN)[C@@H](O)[C@H]2O)[C@@H]2C[C@@H](O)[C@H](n3ccc(=O)[nH]c3=O)O2)cc1OC	–
0.35 µM	NC[C@H]1O[C@@H](O[C@@H](CN2CCC(Cc3ccccc3)CC2)[C@@H]2C[C@@H](O)[C@H](n3ccc(=O)[nH]c3=O)O2)[C@H](O)[C@@H]1O	–
0.22 µM	NC[C@H]1O[C@@H](O[C@@H](CNCCc2cccc(C(F)(F)F)c2)[C@@H]2C[C@@H](O)[C@H](n3ccc(=O)[nH]c3=O)O2)[C@H](O)[C@@H]1O	–
3.8 µM	NC[C@H]1O[C@@H](O[C@@H](CNCCCn2ccnc2)[C@@H]2C[C@@H](O)[C@H](n3ccc(=O)[nH]c3=O)O2)[C@H](O)[C@@H]1O	–
